According to patent US9309242B2, “Substituted pyrido[2,3-b]pyrazines as FGFR kinase inhibitors” (priority 2011, dated 2016):
Read-outs that look alike come from different tables or passages of the source.

What was measured:
FGFR1 (h) = FGFR1 (h) (Homo sapiens, UniProt P11362); assay: FGFR1 (enzymatic assay), TR-FRET; format: biochemical; conditions: average values if tested multiple times, read-out: FGFR 1 pIC50 (converted)
FGFR2 (h) = FGFR2 (h) (Homo sapiens, UniProt P21802); assay: FGFR2 (enzymatic assay), TR-FRET; format: biochemical; conditions: enzymatic assay; average values if tested multiple times; read-out: FGFR 2 pIC50 (converted)
Summary of the method: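 Compound (1% DMSO final) was combined with FGFR2 (h), 150 ng/ml, plus 0.4 μM ATP and 500 nM biotin-Flt3 in Mn2+-containing HEPES buffer at pH 7.5.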

FGFR3 (h) = FGFR3 (h) (Homo sapiens, UniProt P22607); assay: FGFR3 (enzymatic assay), TR-FRET; format: biochemical; conditions: average values if tested multiple times, read-out: FGFR 3 pIC50 (converted)
FGFR3 (h), sequence (P22607 23-806): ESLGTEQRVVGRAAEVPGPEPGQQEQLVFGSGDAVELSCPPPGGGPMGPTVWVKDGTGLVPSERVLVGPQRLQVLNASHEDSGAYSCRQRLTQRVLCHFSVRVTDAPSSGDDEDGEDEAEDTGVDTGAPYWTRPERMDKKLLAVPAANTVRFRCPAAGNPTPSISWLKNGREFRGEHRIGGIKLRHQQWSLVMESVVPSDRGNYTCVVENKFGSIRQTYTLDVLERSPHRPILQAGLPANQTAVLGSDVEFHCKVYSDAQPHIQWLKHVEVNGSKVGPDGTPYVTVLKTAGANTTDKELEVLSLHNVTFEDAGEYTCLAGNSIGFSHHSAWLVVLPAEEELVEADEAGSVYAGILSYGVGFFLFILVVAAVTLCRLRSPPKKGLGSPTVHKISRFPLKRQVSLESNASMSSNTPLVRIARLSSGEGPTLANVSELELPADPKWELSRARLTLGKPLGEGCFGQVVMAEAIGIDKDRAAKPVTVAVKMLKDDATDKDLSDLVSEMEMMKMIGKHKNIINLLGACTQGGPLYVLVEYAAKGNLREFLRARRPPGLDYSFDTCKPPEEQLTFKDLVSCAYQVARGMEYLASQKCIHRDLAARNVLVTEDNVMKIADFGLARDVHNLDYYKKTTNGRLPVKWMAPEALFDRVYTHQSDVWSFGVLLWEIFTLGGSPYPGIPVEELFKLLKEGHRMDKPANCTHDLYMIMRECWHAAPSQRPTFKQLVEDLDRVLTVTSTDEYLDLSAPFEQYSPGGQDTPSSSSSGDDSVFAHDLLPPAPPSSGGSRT
Text: Time-Resolved Fluorescence Resonance Energy Transfer (TR-FRET) signal (ex340 nm.

FGFR4 (h) = FGFR4 (h) (Homo sapiens, UniProt P22455); assay: FGFR4 (enzymatic assay), TR-FRET; format: biochemical; conditions: FGFR 4 pIC50, enzymatic assay; average values if tested multiple times
FGFR4 (h), sequence (P22455 22-802): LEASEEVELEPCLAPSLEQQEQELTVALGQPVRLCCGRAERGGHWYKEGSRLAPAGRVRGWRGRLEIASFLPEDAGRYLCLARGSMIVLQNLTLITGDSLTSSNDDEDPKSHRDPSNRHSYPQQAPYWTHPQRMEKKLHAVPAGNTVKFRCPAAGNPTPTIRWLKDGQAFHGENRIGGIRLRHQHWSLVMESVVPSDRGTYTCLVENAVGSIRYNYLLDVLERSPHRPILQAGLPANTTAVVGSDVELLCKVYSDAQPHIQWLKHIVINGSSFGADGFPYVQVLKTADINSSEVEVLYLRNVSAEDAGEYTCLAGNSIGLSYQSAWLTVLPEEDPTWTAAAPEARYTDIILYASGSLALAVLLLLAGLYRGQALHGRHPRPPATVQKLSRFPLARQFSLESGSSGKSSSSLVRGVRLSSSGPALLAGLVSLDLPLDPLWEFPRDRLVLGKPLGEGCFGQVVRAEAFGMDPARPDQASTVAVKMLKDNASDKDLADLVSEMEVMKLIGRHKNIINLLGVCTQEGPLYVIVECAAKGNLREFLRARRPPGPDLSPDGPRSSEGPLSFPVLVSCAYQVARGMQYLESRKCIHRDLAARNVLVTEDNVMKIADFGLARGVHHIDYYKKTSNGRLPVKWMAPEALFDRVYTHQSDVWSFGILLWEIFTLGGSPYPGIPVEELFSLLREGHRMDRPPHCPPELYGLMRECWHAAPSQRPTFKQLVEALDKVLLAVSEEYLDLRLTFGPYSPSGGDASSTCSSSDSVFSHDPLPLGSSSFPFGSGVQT

KDR (h) = KDR (h) (Homo sapiens, UniProt P35968); assay: KDR (VEGFR2) (enzymatic assay), TR-FRET; format: biochemical; conditions: read-out: VEGFR 2 (KDR) pIC50 (converted)
Summary of the method: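 Read-out is TR-FRET (ex 340 nm, em 620 and 655 nm) in RFU, after an EDTA stop carrying Eu-labelled anti-phosphotyrosine and SA-XL-665 (60 min, RT). The preceding kinase reaction ran 120 min at RT with 150 ng/ml enzyme, 500 nM Btn-Flt3 and 3 μM ATP.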

[1] = target: T1, Ba/F3-FGFR1-transfected cells (Homo sapiens, UniProt P11362); assay: Ba/F3-FGFR1 (minus IL3) cellular proliferation assay, Alamar Blue; format: cell-based
T1 construct: BAF3-FGFR1 (MIN IL3) pIC50; other: minus IL3
Summary of the method: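 Ba/F3-FGFR1 cells, 20000/well, RPMI-1640 + 10% FBS + 2 mM L-Gln; compound in DMSO; 24 h, 37 °C, 5% CO2; Alamar Blue 4 h; RFU ex 540/em 590.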

[2] = test system: Ba/F3-FGFR1-transfected cells; assay: Ba/F3-FGFR1 (plus IL3) cellular proliferation assay, counterscreen with 10 ng/ml murine IL3; format: cell-based; conditions: plus IL3 (10 ng/ml murine IL3, counterscreen); for IC50: read-out: BAF3-FGFR1 (PLUS IL3) pIC50 (converted)
Summary of the method: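 Ba/F3-FGFR1 cells (20000/well) in RPMI-1640 with 10% FBS exposed to compound for 24 h at 37° C., 5% CO2, then Alamar Blue (resazurin) added for 4 h; fluorescence read at ex 540/em 590 nm. Counterscreen run identically with 10 ng/ml murine IL3.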

[3] = target: T2, Ba/F3-FGFR3-transfected cells (Homo sapiens, UniProt P22607); assay: Ba/F3-FGFR3 (minus IL3) cellular proliferation assay, Alamar Blue; format: cell-based
T2 construct: BAF3-FGFR3 (MIN IL3) pIC50; other: minus IL3
T2 sequence (P22607 whole entry, change not shown): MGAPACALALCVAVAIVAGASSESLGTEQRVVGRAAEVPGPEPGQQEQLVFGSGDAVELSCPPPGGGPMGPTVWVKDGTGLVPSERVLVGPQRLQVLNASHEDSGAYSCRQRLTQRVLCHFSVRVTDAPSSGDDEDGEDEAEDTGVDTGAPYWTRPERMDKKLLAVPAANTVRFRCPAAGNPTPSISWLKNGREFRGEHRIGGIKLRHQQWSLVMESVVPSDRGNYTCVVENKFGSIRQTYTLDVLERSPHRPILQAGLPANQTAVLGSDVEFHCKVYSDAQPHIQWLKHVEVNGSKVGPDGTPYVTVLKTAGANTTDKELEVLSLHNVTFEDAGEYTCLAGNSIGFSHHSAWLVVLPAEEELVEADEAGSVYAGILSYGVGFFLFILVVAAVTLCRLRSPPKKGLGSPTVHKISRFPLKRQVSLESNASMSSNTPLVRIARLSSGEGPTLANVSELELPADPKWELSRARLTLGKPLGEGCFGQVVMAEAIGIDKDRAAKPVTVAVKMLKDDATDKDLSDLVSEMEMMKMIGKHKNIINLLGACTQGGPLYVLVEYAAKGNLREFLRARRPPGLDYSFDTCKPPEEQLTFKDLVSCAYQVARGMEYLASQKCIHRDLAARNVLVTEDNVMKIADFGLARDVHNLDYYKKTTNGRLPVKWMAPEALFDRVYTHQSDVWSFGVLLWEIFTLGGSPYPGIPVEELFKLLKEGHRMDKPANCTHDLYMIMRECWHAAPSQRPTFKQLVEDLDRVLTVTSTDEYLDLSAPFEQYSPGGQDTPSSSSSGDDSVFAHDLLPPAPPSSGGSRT
Summary of the method: (§1)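 FGFR3-Ba/F3, 20000 cells/well, RPMI-1640 + 10% FBS, no phenol red; cpd in DMSO; 24 h, 37° C/5% CO2. Alamar Blue 4 h, RFU ex540/em590. Counterscreen: + murine IL3 10 ng/ml.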

[4] = test system: Ba/F3-FGFR3-transfected cells; assay: Ba/F3-FGFR3 (plus IL3) cellular proliferation assay, counterscreen with 10 ng/ml murine IL3; format: cell-based; conditions: plus IL3 (10 ng/ml murine IL3, counterscreen); for IC50: read-out: BAF3-FGFR3 (PLUS IL3) pIC50 (converted)
Summary of the method: as §1

[5] = target: T3, Ba/F3-KDR-transfected cells (Homo sapiens, UniProt P35968); assay: Ba/F3-KDR (minus IL3) cellular proliferation assay, Alamar Blue; format: cell-based
T3 construct: BAF3-KDR (MIN IL3) pIC50; other: minus IL3
T3 sequence (P35968 whole entry, change not shown): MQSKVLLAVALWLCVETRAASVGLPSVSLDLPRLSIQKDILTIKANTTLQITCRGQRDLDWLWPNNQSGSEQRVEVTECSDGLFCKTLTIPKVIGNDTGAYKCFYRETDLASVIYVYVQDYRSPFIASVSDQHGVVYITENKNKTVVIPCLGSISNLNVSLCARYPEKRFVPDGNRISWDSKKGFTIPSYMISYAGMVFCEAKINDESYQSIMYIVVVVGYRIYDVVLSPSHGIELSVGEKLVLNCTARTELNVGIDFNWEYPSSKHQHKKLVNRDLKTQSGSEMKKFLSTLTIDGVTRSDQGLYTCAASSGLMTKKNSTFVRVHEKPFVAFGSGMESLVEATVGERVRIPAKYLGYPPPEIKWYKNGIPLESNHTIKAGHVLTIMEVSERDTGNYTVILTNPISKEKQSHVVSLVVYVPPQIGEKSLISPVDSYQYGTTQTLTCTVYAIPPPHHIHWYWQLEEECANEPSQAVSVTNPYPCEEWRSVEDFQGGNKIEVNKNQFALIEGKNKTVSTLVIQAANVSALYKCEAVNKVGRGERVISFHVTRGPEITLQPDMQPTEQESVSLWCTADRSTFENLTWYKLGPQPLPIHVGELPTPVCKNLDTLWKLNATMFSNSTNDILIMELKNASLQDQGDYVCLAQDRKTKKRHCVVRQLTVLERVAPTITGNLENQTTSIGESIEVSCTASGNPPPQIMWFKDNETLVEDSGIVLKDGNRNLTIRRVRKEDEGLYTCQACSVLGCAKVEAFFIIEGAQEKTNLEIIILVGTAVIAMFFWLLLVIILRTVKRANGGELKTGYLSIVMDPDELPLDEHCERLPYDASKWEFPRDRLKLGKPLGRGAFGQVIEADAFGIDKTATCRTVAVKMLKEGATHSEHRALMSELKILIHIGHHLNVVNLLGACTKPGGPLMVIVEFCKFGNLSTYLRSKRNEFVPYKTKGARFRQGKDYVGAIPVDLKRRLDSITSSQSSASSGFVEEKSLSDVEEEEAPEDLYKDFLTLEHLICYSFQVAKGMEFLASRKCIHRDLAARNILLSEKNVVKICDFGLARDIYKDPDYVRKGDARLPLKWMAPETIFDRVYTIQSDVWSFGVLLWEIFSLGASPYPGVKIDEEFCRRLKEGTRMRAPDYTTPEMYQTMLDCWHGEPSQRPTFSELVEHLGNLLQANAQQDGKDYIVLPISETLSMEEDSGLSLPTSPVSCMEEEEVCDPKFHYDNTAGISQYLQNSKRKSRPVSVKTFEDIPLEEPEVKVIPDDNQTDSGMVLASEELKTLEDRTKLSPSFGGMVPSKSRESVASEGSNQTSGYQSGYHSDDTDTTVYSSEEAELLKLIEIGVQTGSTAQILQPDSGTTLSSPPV
Summary of the method: (§2)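 20000 cells/well, RPMI-1640 + 10% FBS + 2 mM L-Gln; compound 24 h, 37° C/5% CO2; Alamar Blue 4 h; RFU ex540/em590.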

[6] = test system: Ba/F3-KDR-transfected cells; assay: Ba/F3-KDR (plus IL3) cellular proliferation assay, counterscreen with 10 ng/ml murine IL3; format: cell-based; conditions: plus IL3 (10 ng/ml murine IL3, counterscreen)
Summary of the method: as §2

[7] = target: Ba/F3-FGFR4-transfected cells (Homo sapiens, UniProt P22455); assay: Ba/F3-FGFR4 cellular proliferation assay, Alamar Blue; format: cell-based
Summary of the method: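 20000 cells/well, RPMI-1640 (phenol red free) + 10% FBS + 2 mM L-Gln; cpd from DMSO; 24 h, 37° C, 5% CO2; Alamar Blue 4 h; RFU ex 540/em 590 nm.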

[8] = average values if tested multiple times

FGFR1 (h), sequence (P11362 22-822): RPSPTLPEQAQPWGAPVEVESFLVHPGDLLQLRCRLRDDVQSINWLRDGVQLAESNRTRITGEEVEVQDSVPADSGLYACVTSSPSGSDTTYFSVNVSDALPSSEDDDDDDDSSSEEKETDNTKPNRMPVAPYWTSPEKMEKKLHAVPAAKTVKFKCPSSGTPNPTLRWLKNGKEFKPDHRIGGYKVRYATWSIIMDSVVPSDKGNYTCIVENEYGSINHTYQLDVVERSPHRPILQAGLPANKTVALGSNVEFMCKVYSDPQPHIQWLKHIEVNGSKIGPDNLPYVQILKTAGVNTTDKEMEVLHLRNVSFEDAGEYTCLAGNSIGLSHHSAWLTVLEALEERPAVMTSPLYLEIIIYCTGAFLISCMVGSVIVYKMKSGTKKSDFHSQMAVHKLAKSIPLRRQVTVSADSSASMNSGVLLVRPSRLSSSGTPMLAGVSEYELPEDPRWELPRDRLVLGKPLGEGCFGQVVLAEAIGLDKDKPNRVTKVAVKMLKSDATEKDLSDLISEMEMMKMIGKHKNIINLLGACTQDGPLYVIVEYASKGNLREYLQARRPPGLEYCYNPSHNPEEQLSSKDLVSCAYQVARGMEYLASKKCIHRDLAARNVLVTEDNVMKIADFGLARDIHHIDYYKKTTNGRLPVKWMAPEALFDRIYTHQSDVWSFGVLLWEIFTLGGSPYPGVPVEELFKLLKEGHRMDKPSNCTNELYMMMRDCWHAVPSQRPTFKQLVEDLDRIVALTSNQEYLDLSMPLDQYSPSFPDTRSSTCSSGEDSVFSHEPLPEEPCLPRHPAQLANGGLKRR

Structure (SMILES): COc1cc(OC)c(F)c(/N=c2\ccc3ncc(-c4cnn(C)c4)nc3n2CC2CCC(=O)N2)c1F (stereo not drawn) [Compound 47]
- IC50 (FGFR1 (h)): 0.661 nM
- IC50 (FGFR2 (h)): 1.41 nM
- IC50 (FGFR3 (h)): ~0.933 nM
- IC50 (FGFR4 (h)): 1.45 nM
- IC50 (KDR (h); [8]): 12.6 nM
- BAF3-FGFR1 (MIN IL3) pIC50 [1]: 7.86
- BAF3-FGFR1 (PLUS IL3) pIC50 [2]: <5
- BAF3-FGFR3 (MIN IL3) pIC50 [3]: ~7.76
- BAF3-FGFR3 (PLUS IL3) pIC50 [4]: <5
- BAF3-KDR (MIN IL3) pIC50 [5]: 6.28
- BAF3-KDR (PLUS IL3) pIC50 [6]: <5
- BAF3-FGFR4 pIC50 [7]: 6.70
- melting point: 169 °C

Structure (SMILES): COc1cc(OC)cc(N(CCNC(C)=O)c2ccc3ncc(-c4cnn(C)c4)nc3n2)c1 [Compound 235]
- IC50 (KDR (h)): 79.4 nM
- IC50 [2]: > 10000 nM
- IC50 [4]: > 10000 nM
- BAF3-KDR (MIN IL3) pIC50 [5]: 5.62
- IC50 ([6]; read-out: BAF3-KDR (PLUS IL3) pIC50 (converted)): > 10000 nM
- melting point: 193 °C

Structure (SMILES): CNCCn1/c(=N/c2c(F)c(OC)cc(OC)c2F)ccc2ncc(-c3cnn(C)c3)nc21 [Compound 4]
- IC50 (FGFR1 (h)): 1.26 nM
- IC50 (FGFR2 (h)): 3.98 nM
- IC50 (FGFR3 (h)): 3.16 nM
- IC50 (FGFR4 (h)): 7.94 nM
- IC50 (KDR (h); [8]): 63.1 nM
- BAF3-FGFR1 (MIN IL3) pIC50 [1]: 7.3
- IC50 [2]: > 10000 nM
- BAF3-FGFR3 (MIN IL3) pIC50 [3]: 6.9
- IC50 [4]: > 10000 nM
- BAF3-KDR (MIN IL3) pIC50 [5]: 5.4
- melting point: 174 °C

Structure (SMILES): COc1cc(OC)c(F)c(/N=c2\ccc3ncc(-c4cnn(C)c4)nc3n2CCCO)c1F (single isomer, unassigned) [Compound 17]
- IC50 (FGFR1 (h)): 0.251 nM
- IC50 (FGFR2 (h)): 1.26 nM
- IC50 (FGFR3 (h)): 0.398 nM
- IC50 (FGFR4 (h)): 0.501 nM
- IC50 (KDR (h); [8]): 3.98 nM
- BAF3-FGFR1 (MIN IL3) pIC50 [1]: 8.7
- IC50 [2]: > 10000 nM
- BAF3-FGFR3 (MIN IL3) pIC50 [3]: 8.6
- IC50 [4]: > 10000 nM
- BAF3-KDR (MIN IL3) pIC50 [5]: 6.8
- melting point: 206 °C

Structure (SMILES): COc1cc(OC)cc(N(CC2CCC(=O)N2)c2ccc3ncc(-c4cnn(C)c4)nc3n2)c1 (stereo not drawn) [Compound 54]
- IC50 (FGFR1 (h)): 6.76 nM
- IC50 (FGFR2 (h)): 4.9 nM
- IC50 (FGFR3 (h)): 3.02 nM
- IC50 (FGFR4 (h)): 17.4 nM
- IC50 (KDR (h); [8]): 66.1 nM
- BAF3-FGFR1 (MIN IL3) pIC50 [1]: 6.64
- BAF3-FGFR1 (PLUS IL3) pIC50 [2]: <5
- BAF3-FGFR3 (MIN IL3) pIC50 [3]: 6.83
- BAF3-FGFR3 (PLUS IL3) pIC50 [4]: <5
- BAF3-KDR (MIN IL3) pIC50 [5]: 5.39
- BAF3-KDR (PLUS IL3) pIC50 [6]: <5
- BAF3-FGFR4 pIC50 [7]: 6.05
- melting point: 125 °C
